Experimental data taken from patent US20260062443A1 (ALEXION PHARMACEUTICALS, INC., priority 2022, published 2026).

target: T1, Human complement C1s enzyme (Homo sapiens, UniProt P09871); test: Human C1s enzyme assay; assay type: biochemical; settings: human complement C1s enzyme 1.16 nM, substrate Z-L-Lys-SBzl 100 μM, 5 min preincubation; read-out: IC50 (Stars), C1s Inhibiting Activity
T1 sequence (P09871 438-688 limits assumed): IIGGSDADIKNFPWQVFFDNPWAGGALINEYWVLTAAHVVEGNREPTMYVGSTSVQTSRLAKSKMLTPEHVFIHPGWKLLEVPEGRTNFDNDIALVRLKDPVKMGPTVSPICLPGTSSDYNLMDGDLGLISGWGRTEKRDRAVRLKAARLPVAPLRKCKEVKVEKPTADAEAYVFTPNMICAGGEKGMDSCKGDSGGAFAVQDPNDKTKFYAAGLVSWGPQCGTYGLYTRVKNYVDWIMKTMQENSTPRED
T1 sequence (P09871 16-437 partner limits assumed): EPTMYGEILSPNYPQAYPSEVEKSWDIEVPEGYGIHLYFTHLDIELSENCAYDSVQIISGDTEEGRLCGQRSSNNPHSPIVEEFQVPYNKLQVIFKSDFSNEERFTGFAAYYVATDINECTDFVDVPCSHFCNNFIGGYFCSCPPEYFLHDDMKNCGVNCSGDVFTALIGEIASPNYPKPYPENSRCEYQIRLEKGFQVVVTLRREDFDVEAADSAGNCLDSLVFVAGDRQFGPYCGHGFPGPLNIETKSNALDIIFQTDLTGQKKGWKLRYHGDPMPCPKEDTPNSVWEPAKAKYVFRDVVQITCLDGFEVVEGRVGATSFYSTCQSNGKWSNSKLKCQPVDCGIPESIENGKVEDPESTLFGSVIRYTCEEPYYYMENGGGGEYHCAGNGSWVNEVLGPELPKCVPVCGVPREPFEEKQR
Summary of the method: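 Serum-purified human C1s (1.16 nM final) preincubated 5 min at room temperature with compound in 50 mM Tris, 1 M NaCl, pH 7.5. Z-L-Lys-SBzl and DTNB added at 100 μM each; A405 followed every 30 s for 30 min, and IC50 obtained by nonlinear regression of reaction rates.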

IC50 | SMILES
100 to 1000 nM | COc1cccc(C(=O)NCC(=O)N2C[C@H](OC(F)F)C[C@H]2C(=O)NCc2cc3cnccc3[nH]2)c1 [Compound 382, (2S,4R)-N-((1H-pyrrolo[3,2-c]pyridin-2-yl)methyl)-4-(difluoromethoxy)-1-((3-methoxybenzoyl)glycyl) pyrrolidine-2-carboxamide]
< 100 nM | O=C(NCC(=O)N1C[C@H](OC(F)F)C[C@H]1C(=O)NCc1cc2cnccc2[nH]1)c1ccc(OC2CCCCC2)cc1 [Compound 383, (2S,4R)-N-((1H-pyrrolo[3,2-c]pyridin-2-yl)methyl)-1-((4-(cyclohexyloxy)benzoyl)glycyl)-4-(difluoromethoxy)pyrrolidine-2-carboxamide]
> 1000 nM | COc1ccc(C(=O)NCC(=O)N2C[C@H](OC(F)F)C[C@H]2C(=O)NCc2cc3cnccc3[nH]2)cc1 [Compound 384, (2S,4R)-N-((1H-pyrrolo[3,2-c]pyridin-2-yl)methyl)-4-(difluoromethoxy)-1-((4-methoxybenzoyl)glycyl) pyrrolidine-2-carboxamide]
< 100 nM | Cc1ccsc1Oc1cccc(C(=O)NCC(=O)N2C[C@H](OC(F)F)C[C@H]2C(=O)NCc2cc3cnccc3[nH]2)c1 [Compound 385, (2S,4R)-N-((1H-pyrrolo[3,2-c]pyridin-2-yl)methyl)-4-(difluoromethoxy)-1-((3-((3-methylthiophen-2-yl)oxy)benzoyl)glycyl) pyrrolidine-2-carboxamide]
